Data published in patent US8557738B2, “Nitrogen-containing heterocyclic derivative and fungicide for agricultural and horticultural use” (Nippon Soda Co., Ltd., priority 2008, dated 2013).

Test system: apple scab pathogen (Venturia inaequalis)
Assay: Apple scab control test
Type: in vivo
Details: 336 h, emulsion sprayed at 100 ppm active ingredient onto apple seedlings (Ralls Janet), lesions on leaves after 2 weeks vs untreated, read-out: control value

Row | Compound | pest or weed control at 100 ppm [%]
1 | CC1(C)CN=C(c2cnc3ccccc3c2)c2cccc(C#N)c2O1 [B1-54, 2,2-Dimethyl-5-quinolin-3-yl-2,3-dihydro-benzo[f][1,4]oxazepine-9-carbonitrile] | ≥ 75
2 | CC1(C)CN=C(c2cnc3sccc3c2)c2cccc(Cl)c2O1 [A1-20, 9-Chloro-2,2-dimethyl-5-(thieno[2,3-b]pyridin-5-yl)-2,3-dihydro-benzo[f][1,4]oxazepine] | ≥ 75
3 | c1ccc2c(c1)OCCN=C2c1cnc2ccccc2c1 [B1-1, 5-(3-Quinolinyl)-2,3-dihydro-benzo[f][1,4]oxazepine] | ≥ 75
4 | CC1(C(F)(F)F)CN=C(c2cnc3c(F)cccc3c2)c2ccccc2O1 (centres unmarked) [B1-56, 5-(8-Fluoro-quinolin-3-yl)-2-methyl-2-trifluoromethyl-2,3-dihydro-benzo[f][1,4]oxazepine] | ≥ 75
5 | CC1(C(F)(F)F)CN=C(c2cnc3ccccc3c2)c2ccccc2O1 (centres unmarked) [B1-51, 2-Methyl-5-quinolin-3-yl-2-trifluoromethyl-2,3-dihydro-benzo[f][1,4]oxazepine] | ≥ 75
6 | CC1(Cc2ccc(F)cc2)CN=C(c2cnc3ccccc3c2)c2ccccc2O1 (centres unmarked) [B1-53, 2-(4-Fluorobenzyl)-2-methyl-5-quinolin-3-yl-2,3-dihydro-benzo[f][1,4]oxazepine] | ≥ 75

Test system: cucumber gray mold pathogen (Botrytis cinerea)
Assay: Cucumber gray mold control test
Type: in vivo
Details: 96 h, emulsion sprayed at 100 ppm active ingredient onto cucumber seedlings (Sagami Hanjiro), lesions on leaves after 4 days vs untreated, read-out: control value

Row | Compound | pest or weed control at 100 ppm [%]
7 | CC1(C)CN=C(c2cnc3ccccc3c2)c2cccc(Cc3ccccc3)c2O1 [B1-74, 9-Benzyl-2,2-dimethyl-5-quinolin-3-yl-2,3-dihydro-benzo[f][1,4]oxazepine] | ≥ 75
8 | CC1(C)CN=C(c2cnc3ccccc3c2)c2cc(Cl)ccc2O1 [B1-77, 7-Chloro-2,2-dimethyl-5-quinolin-3-yl-2,3-dihydro-benzo[f][1,4]oxazepine] | ≥ 75

Test system: not given
Assay: not given
Details: not given

Row | melting point [°C] | Compound
9 | 153 to 155 | COc1cccc2c1OC(C)(C)CN=C2c1cnc2ccccc2c1 [B1-55, 9-Methoxy-2,2-dimethyl-5-quinolin-3-yl-2,3-dihydro-benzo[f][1,4]oxazepine]
10 | 164 to 166 | CC1(C)CN=C(c2cnc3c(F)cccc3c2)c2cccc(F)c2O1.Cl
11 | 181 to 183 | CC1(C)CN=C(c2cnc3c(F)cccc3c2)c2ccccc2S1 [B2-13, 2,2-Dimethyl-5-(8-fluoro-quinolin-3-yl)-2,3-dihydro-benzo[f][1,4]thiazepine]
12 | 123 to 125 | CC1(Cl)CN=C(c2cnc3ccccc3c2)c2cccc(F)c2O1 (centres unmarked) [B1-30, 2-Chloro-9-fluoro-2-methyl-5-(3-quinolinyl)-2,3-dihydro-benzo[f][1,4]oxazepine]
13 | 190 to 191 | CC1(C)CN=C(c2cnc3c(F)cccc3c2)c2cccc(Cl)c2O1 [B1-39, 9-Chloro-5-(8-fluoro-quinolin-3-yl)-2,2-dimethyl-2,3-dihydro-benzo[f][1,4]oxazepine]
14 | 93 to 95 | CCC1(C)CN=C(c2cnc3c(F)cccc3c2)c2ccccc2O1 (centres unmarked) [B1-47, 2-Ethyl-5-(8-fluoro-quinolin-3-yl)-2-methyl-2,3-dihydro-benzo[f][1,4]oxazepine]
15 | 160 to 162 | Cc1cccc2ncc(C3=NCC(C)(C)Oc4c(Cl)cccc43)cc12 [B1-58, 9-Chloro-2,2-dimethyl-5-(5-methyl-quinolin-3-yl)-2,3-dihydro-benzo[f][1,4]oxazepine]
16 | 132 to 133 | CC1(C)N=C(c2cnc3ccccc3c2)c2cccc(F)c2OC1(C)C [B1-43, 9-Fluoro-5-(3-quinolinyl)-2,2,3,3-tetramethyl-2,3-dihydro-benzo[f][1,4]oxazepine]
17 | 131 to 133 | CC1(C)CN(C=O)C(c2cnc3c(F)cccc3c2)c2cccc(F)c2O1 (centres unmarked) [B4-51, 9-Fluoro-5-(8-fluoro-quinolin-3-yl)-2,2-dimethyl-2,3-dihydro-5H-benzo[f][1,4]oxazepine-4-carbaldehyde]
18 | 174 to 176 | CC1(C)CN=C(c2cnc3c(F)cccc3c2)c2cccc(F)c2O1.O=C(O)C(F)(F)F
19 | 225 to 227 | CC1(C)Oc2ccccc2C(c2cnc3ccccc3c2)NC1=O (centres unmarked) [B4-53, 2,2-Dimethyl-5-quinolin-3-yl-4,5-dihydro-benzo[f][1,4]oxazepin-3-one]
20 | 142 to 143 | Cc1cc(C2=NCCOc3c(Cl)cccc32)cnc1C
21 | 130 to 131 | CC1(C)CNC(c2cnc3c(F)cccc3c2)c2cccc(F)c2O1 (centres unmarked) [B4-47, 9-Fluoro-5-(8-fluoro-quinolin-3-yl)-2,2-dimethyl-2,3,4,5-tetrahydro-benzo[f][1,4]oxazepine]
22 | 214 to 217 | CC1(C)CN=C(c2cnc3c(Cl)cccc3c2)c2cccc(Cl)c2O1 [B1-41, 2,2-Dimethyl-9-chloro-5-(8-chloro-quinolin-3-yl)-2,3-dihydro-benzo[f][1,4]oxazepine]
23 | 133 to 135 | CC1(C)COc2cc(F)ccc2C(c2cnc3ccccc3c2)=N1 [B1-85, 8-Fluoro-3,3-dimethyl-5-quinolin-3-yl-2,3-dihydro-benzo[f][1,4]oxazepine]
24 | 140 to 142 | CCC1(C)CN=C(c2cnc3c(F)cccc3c2)c2cccc(F)c2O1 (centres unmarked) [B1-49, 2-Ethyl-9-fluoro-5-(8-fluoro-quinolin-3-yl)-2-methyl-2,3-dihydro-benzo[f][1,4]oxazepine]
25 | 139 to 142 | CC1N=C(c2cnc3ccccc3c2)c2ccccc2OC1(C)C (centres unmarked) [B1-42, 5-(3-Quinolinyl)-2,2,3-trimethyl-2,3-dihydro-benzo[f][1,4]oxazepine]
26 | 117 to 118 | CCN1CC(C)(C)Oc2c(F)cccc2C1c1cnc2c(F)cccc2c1 (centres unmarked) [B4-48, 4-Ethyl-9-fluoro-5-(8-fluoro-quinolin-3-yl)-2,2-dimethyl-2,3,4,5-tetrahydro-benzo[f][1,4]oxazepine]
27 | 182 to 184 | c1ccc2c(c1)N=C(c1cnc3ccccc3c1)c1ccccc1O2 [B1-83, 11-Quinolin-3-yl-dibenzo[b,f][1,4]oxazepine]

Row | melting point [°C] | Compound
28 | 179 to 181 | CC1(C)CN=C(c2cnc3c(F)cccc3c2)c2cccc(F)c2S1 [B2-15, 4-Fluoro-9-(8-fluoro-quinolin-3-yl)-6,6-dimethyl-6,7-dihydro-5-thia-8-aza-benzocycloheptene]
29 | 144 to 146 | CCC1(C)CN=C(c2cnc3c(F)cccc3c2)c2cccc(Cl)c2O1 (centres unmarked) [B1-48, 9-Chloro-2-ethyl-5-(8-fluoro-quinolin-3-yl)-2-methyl-2,3-dihydro-benzo[f][1,4]oxazepine]
30 | 119 to 122 | CC1(C)CN=C(c2cnc3ccccc3c2)c2cccc(F)c2S1 [B2-14, 4-Fluoro-6,6-dimethyl-9-quinolin-3-yl-6,7-dihydro-5-thia-8-aza-benzocycloheptene]
31 | 126 to 128 | Fc1cccc2c1C(c1cnc3ccccc3c1)=NCCO2
32 | 103 to 105 | CC1(C(F)(F)F)CN=C(c2cnc3c(F)cccc3c2)c2ccccc2O1 (centres unmarked) [B1-56, 5-(8-Fluoro-quinolin-3-yl)-2-methyl-2-trifluoromethyl-2,3-dihydro-benzo[f][1,4]oxazepine]
33 | 144 to 145 | CC1(C)N=C(c2cnc3c(F)cccc3c2)c2cccc(F)c2OC1(C)C [B1-45, 9-Fluoro-5-(8-fluoro-quinolin-3-yl)-2,2,3,3-tetramethyl-2,3-dihydro-benzo[f][1,4]oxazepine]
34 | 149 to 151 | CC1(C)CN=C(c2cnc3ccccc3c2)c2cccc(Cl)c2O1.Cl
35 | 166 to 168 | Cc1ccc2ncc(C3=NCC(C)(C)Oc4c(Cl)cccc43)cc2c1 [B1-60, 9-Chloro-2,2-dimethyl-5-(6-methylquinolin-3-yl)-2,3-dihydro-benzo[f][1,4]oxazepine]
36 | 129 to 131 | CC1(C)CN=C(c2cnc3ccccc3c2)c2cccc(Cl)c2O1.O=C(O)C(F)(F)F
37 | 133 to 134 | CC1(C)CNC(c2cnc3c(F)cccc3c2)c2cccc(Cl)c2O1 (centres unmarked) [B4-49, 9-Chloro-5-(8-fluoro-quinolin-3-yl)-2,2-dimethyl-2,3,4,5-tetrahydro-benzo[f][1,4]oxazepine]
38 | 118 to 120 | CC1(C)CN=C(c2cnc3ccccc3c2)c2ccccc2[S+]1[O-] (centres unmarked) [B2-16, 6,6-Dimethyl-9-quinolin-3-yl-6,7-dihydro-5-thia-8-aza-benzocycloheptene 5-oxide]
39 | 225 to 227 | O=C1COc2ccccc2C(c2cnc3ccccc3c2)N1 (centres unmarked) [B4-46, 5-Quinolin-3-yl-4,5-dihydro-benzo[f][1,4]oxazepin-3-one]
40 | 132 to 134 | CC(=O)N1CC(C)(C)Oc2c(F)cccc2C1c1cnc2c(F)cccc2c1 (centres unmarked) [B4-52, 1-[9-Fluoro-5-(8-fluoro-quinolin-3-yl)-2,2-dimethyl-2,3-dihydro-5H-benzo[f][1,4]oxazepin-4-yl]-ethanone]
41 | 155 to 157 | CC1(C)CN=C(c2cnc3c(Cl)cccc3c2)c2ccccc2O1 [B1-46, 5-(8-Chloro-quinolin-3-yl)-2,2-dimethyl-2,3-dihydro-benzo[f][1,4]oxazepine]
42 | 157 to 159 | CC1(C)CN=C(c2cnc3cccc(Cl)c3c2)c2cccc(Cl)c2O1 [B1-57, 9-Chloro-5-(5-chloro-quinolin-3-yl)-2,2-dimethyl-2,3-dihydro-benzo[f][1,4]oxazepine]
43 | 171 to 173 | CC1(C)CN=C(c2cnc3c(F)cccc3c2)c2cccc(F)c2O1 [B1-38, 2,2-Dimethyl-9-fluoro-5-(8-fluoro-quinolin-3-yl)-2,3-dihydro-benzo[f][1,4]oxazepine]
44 | 145 to 147 | Cc1cccc2cc(C3=NCC(C)(C)Oc4c(Cl)cccc43)cnc12 [B1-40, 9-Chloro-2,2-dimethyl-5-(8-methylquinolin-3-yl)-2,3-dihydro-benzo[f][1,4]oxazepine]
45 | 196 to 197 | CC1(c2ccccc2)CN=C(c2cnc3ccccc3c2)c2ccccc2O1 (centres unmarked) [B1-52, 2-Methyl-2-phenyl-5-quinolin-3-yl-2,3-dihydro-benzo[f][1,4]oxazepine]
46 | 165 to 167 | CC1(C)CN=C(c2cnc3c(F)cccc3c2)c2ccccc2O1 [B1-37, 5-(8-Fluoro-quinolin-3-yl)-2,2-dimethyl-2,3-dihydro-benzo[f][1,4]oxazepine]

Row | Compound | melting point [°C]
47 | c1ccc2c(c1)OCCN=C2c1cnc2ccccc2c1 [B1-1, 5-(3-Quinolinyl)-2,3-dihydro-benzo[f][1,4]oxazepine] | 115 to 117
